Test results published in patent US11339161B2, “Triazolo pyridines as modulators of gamma-secretase” (Boehringer Ingelheim International GmbH, priority 2017, dated 2022).
Where two headings read alike, the source gives them in different places.

Legend:
RPS6KB1 (p70S6K) = RPS6KB1 (p70S6K) (Homo sapiens, UniProt P23443); experiment: Z'-LYTE SelectScreen biochemical kinase assay RPS6KB1 (p70S6K)
Description: (§1) Thermo Fisher Scientific SelectScreen™ Biochemical Kinase Profiling Service Z′-LYTE™ Screening Protocol and Assay Conditions Assay Theory
(§2) The […] biochemical assay employs a fluorescence-based, coupled-enzyme format and is based on the differential sensitivity of phosphorylated and non-phosphorylated peptides to proteolytic cleavage. The peptide substrate is labeled with two fluorophores—one at each end—that make up a FRET pair. In the primary reaction, the kinase transfers the gamma-phosphate of ATP to a single tyrosine, serine or threonine residue in a synthetic FRET-peptide. In the secondary reaction, a site-specific protease recognizes and cleaves non-phosphorylated FRET-peptides. Phosphorylation of FRET-peptides suppresses cleavage by the Development Reagent. Cleavage disrupts FRET between the donor (i.e., coumarin) and acceptor (i.e., fluorescein) fluorophores on the FRET-peptide, whereas uncleaved, phosphorylated FRET-peptides maintain FRET. A ratiometric method, which calculates the ratio (Emission Ratio=Coumarin emission (445 nm)/Fluorescein emission (520 nm)) of donor emission to acceptor emission after excitation of the donor fluorophore at 400 nm, is used to quantitate reaction progress, as shown in the equation below. A significant benefit of this ratiometric method for quantitating reaction progress is the elimination of well-to-well variations in FRET-peptide concentration and signal intensities. As a result, the assay yields very high Z′-factor values (>0.7) at a low percent phosphorylation. Both cleaved and uncleaved FRET-peptides contribute to the fluorescence signals and therefore to the Emission Ratio. The extent of phosphorylation of the FRET-peptide can be calculated from the Emission Ratio. The Emission Ratio will remain low if the FRET-peptide is phosphorylated (i.e., no kinase inhibition) and will be high if the FRET-peptide is non-phosphorylated (i.e., kinase inhibition).
(§3) The Test Compounds are screened in 1% DMSO (final) in the well. For 10 point titrations, 3-fold serial dilutions are conducted from the starting concentration of the customer's choosing.
(§4) All Peptide/Kinase Mixtures are diluted to a 2× working concentration in the appropriate Kinase Buffer (see section Kinase Specific Assay Conditions for a complete description).
(§5) All ATP Solutions are diluted to a 4× working concentration in Kinase Buffer (50 mM HEPES pH 7.5, 0.01% BRIJ-35, 10 mM MgCl2, 1 mM EGTA). ATP Km apparent is previously determined using a Z″-LYTE assay.
(§6) The Development Reagent is diluted in Development Buffer (see section Kinase-Specific Assay Conditions—Direct and Cascade for a complete description).
(§7) Bar-coded Corning, low volume NBS, black 384-well plate (Corning Cat. #4514) • 1. 100 nL—100× Test Compound in 100% DMSO • 2. 2.4 μL—Kinase buffer • 3. 5 μL—2× Peptide/Kinase Mixture • 4. 2.5 μL—4×ATP Solution • 5. 30—second plate shake • 6. 60—minute Kinase Reaction incubation at room temperature • 7. 5 μL—Development Reagent Solution • 8. 30—second plate shake • 9. 60—minute Development Reaction incubation at room temperature • 10. Read on fluorescence plate reader and analyze the data Z′-LYTE Assay Controls
(§8) SelectScreen Kinase Profiling Service uses XLfit from IDBS. The dose response curve is curve fit to model number 205 (sigmoidal dose-response model).
The 2×RPS6 KB1 (p70S6K)/Ser/Thr 07 mixture is prepared in 50 mM HEPES pH 7.5, 0.01% BRIJ-35, 10 mM MgCl2, 1 mM EGTA. The final 10 μL Kinase Reaction consists of 2.87-17.7 ng RPS6 KB1 (p70S6K) and 2 μM Ser/Thr 07 in 50 mM HEPES pH 7.5, 0.01% BRIJ-35, 10 mM MgCl2, 1 mM EGTA. After the 1 hour Kinase Reaction incubation, 5 μL of a 1:45000 dilution of Development Reagent A is added.

PTK2 (FAK) = PTK2 (FAK) (Homo sapiens, UniProt Q05397); experiment: Z'-LYTE SelectScreen biochemical kinase assay PTK2 (FAK)
Description: as §1, §2, §3, §4, §5, §6, §7, §8
The 2×PTK2 (FAK)/Tyr 07 mixture is prepared in 50 mM HEPES pH 7.5, 0.01% BRIJ-35, 10 mM MgCl2, 1 mM EGTA. The final 10 μL Kinase Reaction consists of 12.5-100 ng PTK2 (FAK) and 2 μM Tyr 07 in 50 mM HEPES pH 7.5, 0.01% BRIJ-35, 10 mM MgCl2, 1 mM EGTA. After the 1 hour Kinase Reaction incubation, 5 μL of a 1:16 dilution of Development Reagent B is added.

[1] = 10 μmolar compound concentration, ATP at Km app, read-out: RPS6KB1 (p70S6K) inhibition
[2] = read-out: % Inhibition mean RPS6KB1 (p70S6K)
[3] = 10 μmolar compound concentration, ATP at Km app, read-out: PTK2 (FAK) inhibition
[4] = read-out: % Inhibition mean PTK2 (FAK)

Sequence of PTK2 (FAK) (Q05397 whole entry): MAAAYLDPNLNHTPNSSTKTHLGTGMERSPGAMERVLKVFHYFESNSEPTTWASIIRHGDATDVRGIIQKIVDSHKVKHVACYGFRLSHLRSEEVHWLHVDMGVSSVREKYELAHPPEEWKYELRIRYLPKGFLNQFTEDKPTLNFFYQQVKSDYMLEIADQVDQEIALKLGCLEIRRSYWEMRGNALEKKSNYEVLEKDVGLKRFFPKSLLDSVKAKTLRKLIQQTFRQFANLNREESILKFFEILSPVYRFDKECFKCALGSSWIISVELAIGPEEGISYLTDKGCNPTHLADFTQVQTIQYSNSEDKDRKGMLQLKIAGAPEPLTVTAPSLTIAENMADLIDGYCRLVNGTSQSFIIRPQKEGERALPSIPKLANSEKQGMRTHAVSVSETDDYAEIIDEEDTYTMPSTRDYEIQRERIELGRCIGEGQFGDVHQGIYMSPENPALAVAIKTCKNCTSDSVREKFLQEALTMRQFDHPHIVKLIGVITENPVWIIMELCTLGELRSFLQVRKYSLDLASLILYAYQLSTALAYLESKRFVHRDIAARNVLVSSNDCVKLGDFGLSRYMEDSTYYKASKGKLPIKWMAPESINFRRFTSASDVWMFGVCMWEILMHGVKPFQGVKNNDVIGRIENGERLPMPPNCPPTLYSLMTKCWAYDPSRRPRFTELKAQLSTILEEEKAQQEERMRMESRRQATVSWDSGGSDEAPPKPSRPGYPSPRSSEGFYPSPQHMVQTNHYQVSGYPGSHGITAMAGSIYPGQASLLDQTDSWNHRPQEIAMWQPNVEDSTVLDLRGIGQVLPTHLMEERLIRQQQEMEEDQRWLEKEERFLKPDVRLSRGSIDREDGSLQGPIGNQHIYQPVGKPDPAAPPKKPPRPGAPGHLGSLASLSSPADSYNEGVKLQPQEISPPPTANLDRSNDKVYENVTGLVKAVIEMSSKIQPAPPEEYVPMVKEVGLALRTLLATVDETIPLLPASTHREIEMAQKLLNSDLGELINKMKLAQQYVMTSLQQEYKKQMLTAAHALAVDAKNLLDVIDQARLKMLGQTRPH
Sequence of RPS6KB1 (p70S6K) (P23443 whole entry): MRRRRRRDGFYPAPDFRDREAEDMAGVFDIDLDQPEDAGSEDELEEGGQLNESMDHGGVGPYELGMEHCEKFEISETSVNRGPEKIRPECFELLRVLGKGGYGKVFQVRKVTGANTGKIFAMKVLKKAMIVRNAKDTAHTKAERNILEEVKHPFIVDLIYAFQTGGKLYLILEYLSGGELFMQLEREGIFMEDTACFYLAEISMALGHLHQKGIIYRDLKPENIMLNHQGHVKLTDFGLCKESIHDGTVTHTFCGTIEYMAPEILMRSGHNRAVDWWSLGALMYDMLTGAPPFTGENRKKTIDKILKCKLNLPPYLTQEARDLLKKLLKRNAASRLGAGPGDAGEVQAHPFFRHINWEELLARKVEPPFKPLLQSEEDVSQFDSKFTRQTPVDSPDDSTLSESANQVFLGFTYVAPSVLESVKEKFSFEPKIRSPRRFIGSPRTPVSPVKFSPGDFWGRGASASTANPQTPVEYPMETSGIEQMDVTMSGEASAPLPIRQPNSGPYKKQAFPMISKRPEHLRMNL

inhibition at 10 µM (RPS6KB1 (p70S6K); [1])	inhibition at 10 µM (RPS6KB1 (p70S6K); [2])	inhibition at 10 µM (PTK2 (FAK); [3])	inhibition at 10 µM (PTK2 (FAK); [4])	inhibition at 10 µM (RPS6KB1 (p70S6K); read-out: % Inhibition mean)	inhibition at 10 µM (PTK2 (FAK); read-out: % Inhibition mean)	SMILES
< 40%	6%	< 40%	16%	–	–	CCn1ncc2c1CCC(Nc1nc3c(-c4cccc(Cl)c4)cccn3n1)C2 (stereo not shown) [Example 59, [8-(3-Chloro-phenyl)-[1,2,4]triazolo[1,5-a]pyridine-2-yl]-(1-ethyl-4,5,6,7-tetrahydro-1H-indazol-5-yl)-amine]
< 40%	3%	< 40%	7%	–	–	Cc1cc(F)ccc1-c1cccn2nc(Nc3ccc4c(cnn4C)c3)nc12 [Example 9, [8-(4-fluoro-2-methyl-phenyl)-[1,2,4]triazolo[1,5-a]pyridine-2-yl]-(1-methyl-1H-indazol-5-yl)-amine]
< 40%	3%	< 40%	19%	–	–	CCCn1ncc2c1CCC(Nc1nc3c(-c4ccc(F)cc4C)cccn3n1)C2 (stereo not shown) [Example 43, [8-(4-fluoro-2-methyl-phenyl)-[1,2,4]triazolo[1,5-a]pyridine-2-yl]-(1-propyl-4,5,6,7-tetrahydro-1H-indazol-5-yl)-amine]
< 40%	12%	< 40%	19%	–	–	CCCCCn1ncc2c1CCC(Nc1nc3c(-c4ccc(F)cc4C)cccn3n1)C2 (stereo not shown) [Example 47, [8-(4-fluoro-2-methyl-phenyl)-[1,2,4]triazolo[1,5-a]pyridine-2-yl]-(1-pentyl-4,5,6,7-tetrahydro-1H-indazol-5-yl)-amine]
> 80%	–	> 80%	–	85%	94%	Fc1cccc(-c2cccn3nc(Nc4ccc5[nH]cnc5c4)nc23)c1 [Cpd. 293 in WO09155551, reference compound]
< 40%	2%	< 40%	13%	–	–	Cc1cc(F)ccc1-c1cccn2nc(NC3CCc4c(cnn4C)C3)nc12 (stereo not shown) [Example 10, [8-(4-fluoro-2-methyl-phenyl)-[1,2,4]triazolo[1,5-a]pyridine-2-yl]-(1-methyl-4,5,6,7-tetrahydro-1H-indazol-5-yl)-amine]
< 40%	23%	< 40%	30%	–	–	CCn1ncc2c1CCC(Nc1nc3c(-c4ccc(OC)nc4)cccn3n1)C2 (stereo not shown) [Example 71, (1-Ethyl-4,5,6,7-tetrahydro-1H-indazol-5-yl)-[8-(6-methoxy-pyridin-3-yl)-[1,2,4]triazolo[1,5-a]pyridine-2-yl]-amine]
< 40%	22%	< 40%	28%	–	–	CCn1ncc2c1CC[C@@H](Nc1nc3c(-c4ccc(F)cc4C)cccn3n1)C2 [Example R-42, (R)-(1-Ethyl-4,5,6,7-tetrahydro-1H-indazol-5-yl)-[8-(4-fluoro-2-methyl-phenyl)-[1,2,4]triazolo[1,5-a]pyridine-2-yl]-amine]
< 40%	19%	< 40%	18%	–	–	Cc1cc(F)ccc1-c1cccn2nc(NC3CCc4cnn(C)c4C3)nc12 (stereo not shown) [Example 40, [8-(4-Fluoro-2-methyl-phenyl)-[1,2,4]triazolo[1,5-a]pyridine-2-yl]-(1-methyl-4,5,6,7-tetrahydro-1H-indazol-6-yl)-amine]
< 40%	11%	< 40%	8%	–	–	CCn1ncc2c1CCC(Nc1nc3c(-c4ccc(F)cc4)cccn3n1)C2 (stereo not shown) [Example 55, (1-Ethyl-4,5,6,7-tetrahydro-1H-indazol-5-yl)-[8-(4-fluoro-phenyl)-[1,2,4]triazolo[1,5-a]pyridine-2-yl]-amine]
< 40%	1%	< 40%	15%	–	–	CCn1ncc2c1CCC(Nc1nc3c(-c4ccccc4C)cccn3n1)C2 (stereo not shown) [Example 56, (1-Ethyl-4,5,6,7-tetrahydro-1H-indazol-5-yl)-[8-(2-methyl-phenyl)-[1,2,4]triazolo[1,5-a]pyridine-2-yl]-amine]
< 40%	15%	< 40%	24%	–	–	CCn1nc(Cl)c2c1CCC(Nc1nc3c(-c4ccc(F)cc4C)cccn3n1)C2 (stereo not shown) [Example 48, (3-Chloro-1-ethyl-4,5,6,7-tetrahydro-1H-indazol-5-yl)-[8-(4-fluoro-2-methyl-phenyl)-[1,2,4]triazolo[1,5-a]pyridine-2-yl]-amine]
< 40%	23%	< 40%	27%	–	–	CCn1ncc2c1CCC(Nc1nc3c(-c4ccc(C)nc4)cccn3n1)C2 (stereo not shown) [Example 67, (1-Ethyl-4,5,6,7-tetrahydro-1H-indazol-5-yl)-[8-(6-methyl-pyridin-3-yl)-[1,2,4]triazolo[1,5-a]pyridine-2-yl]-amine]
> 80%	–	> 80%	–	93%	101%	CC1(C)C(=O)Nc2ccc(Nc3nc4c(-c5cccc(F)c5)cccn4n3)cc21 [Cpd. 263 in WO09155551, reference compound]
< 40%	31%	< 40%	24%	–	–	CCn1ncc2c1CCC(Nc1nc3c(-c4cccnc4OC)cccn3n1)C2 (stereo not shown) [Example 69, (1-Ethyl-4,5,6,7-tetrahydro-1H-indazol-5-yl)-[8-(2-methoxy-pyridin-3-yl)-[1,2,4]triazolo[1,5-a]pyridine-2-yl]-amine]
< 40%	12%	< 40%	15%	–	–	Cc1cc(F)ccc1-c1cccn2nc(NC3CCc4c(cnn4C(C)C)C3)nc12 (stereo not shown) [Example 44, [8-(4-fluoro-2-methyl-phenyl)-[1,2,4]triazolo[1,5-a]pyridine-2-yl]-(1-isopropyl-4,5,6,7-tetrahydro-1H-indazol-5-yl)-amine]
< 40%	1%	< 40%	27%	–	–	CCn1nnc2c1CCC(Nc1nc3c(-c4ccc(F)cc4C)cccn3n1)C2 (stereo not shown) [Example 51, (1-Ethyl-4,5,6,7-tetrahydro-1H-benzotriazol-5-yl)-[8-(4-fluoro-2-methyl-phenyl)-[1,2,4]triazolo[1,5-a]pyridine-2-yl]-amine]
< 40%	24%	< 40%	25%	–	–	CCn1ncc2c1CCC(Nc1nc3c(-c4cncc(Cl)c4)cccn3n1)C2 (stereo not shown) [Example 73, [8-(5-Chloro-pyridin-3-yl)-[1,2,4]triazolo[1,5-a]pyridine-2-yl]-(1-ethyl-4,5,6,7-tetrahydro-1H-indazol-5-yl)-amine]
> 80%	–	> 80%	–	86%	86%	CC1(C)NC(=O)c2ccc(Nc3nc4c(-c5cccc(F)c5)cccn4n3)cc21 [Cpd. 302 in WO09155551, reference compound]
